Experiments:
[1] = test system: OTX2-positive and OC2-positive cells in retinal tissue produced from human ES cells; experiment: Immunostaining for OTX2 and OC2 of retinal tissue, day 70-75, image analysis (Image J); type: cell-based; conditions: for number of OTX2-positive cells versus Control (NUC) group / OC2-positive cells: 0.15 nM BMP4, 500 nM Cyclopamine-KAAD; for number of OTX2-positive cells versus Control (NUC) group: 100 nM LDN193189, 100 nM SAG from day 22; for OC2-positive cells: 100 nM LDN193189 or 100 nM SAG from day 22, Control (NUC) about 26.4%; for expression level (intensity of immunostained fluorescence) of OC2 as compared to the Control (NUC) group, on average: 0.15 nM BMP4 or 500 nM Cyclopamine-KAAD from day 22
From the text: Here, the proportion of the number of OC2-positive cells contained in the neural retinal tissue can be determined by those of ordinary skill in the art by performing conventionally possible immunostaining and the like by using an anti OC2 antibody, DAPI and the like, measuring the number of OC2-positive cells, the number of DAPI-positive cells and the like, and identifying the ratio thereof contained in a neural retinal tissue. The expression level of OC2 protein can be determined by those of ordinary skill in the art by performing conventionally possible immunostaining and the like by using an anti OC2 antibody, DAPI and the like, and analyzing the region stained by an anti OC2 antibody by using image analysis software such as Image J and the like to identify the signal intensity of OC2-positive cells. Alternatively, the proportion of the number of OC2-positive cells contained in a neural retinal tissue and/or the OC2 protein expression level of OC2-positive cell may be identified by analysis using conventional flow cytometry using an antibody against OC2 protein.
A cell aggregate containing a retinal tissue was prepared by the method described in “Kuwahara et al. Nat Commun 2015, 19(6), 6286-” after modification in part. That is, the aforementioned cultured ES cells were individually dispersed using TrypLE Express (Invitrogen), and the individually dispersed human ES cells were suspended in 100 μL of a serum-free medium in a cell non-adhesive 96 well plate (SUMILON spheroid plate, SUMITOMO BAKELITE CO., LTD.) at 9×10^3 cells per well to allow rapid formation of aggregates, after which they were cultured at 37° C., 5% CO2. As the serum-free medium therefor, a serum-free medium obtained by adding 10% KSR, 450 μM 1-monothioglycerol, 1× Chemically defined lipid concentrate, 5 mg/mL BSA, 20 μM Y27632 to a 1:1 mixture of F-12 medium and IMDM medium was used. At 6 days after the start of suspension culture, BMP4 at a final concentration of 1.5 nM was added and suspension culture was continued. A half amount of the culture medium in the well was exchanged with the above-mentioned medium not supplemented with a BMP signal transduction pathway agonist every 3 or 4 days. A cell aggregate containing a retinal tissue at day 18 from the start of suspension culture was cultured in suspension in a serum-free medium (DMEM/F12 medium supplemented with 1% N2 supplement) containing 3 μM CHIR99021 and 5 μM SU5402 for 4 days, namely, up to day 22 from the start of suspension culture. Thereafter, suspension culture of the cell aggregate containing the retinal tissue was continued until it was appropriately used for analysis and the like. As the culture medium during this period, serum-containing media shown in the following to [3] were used and the cell aggregate was cultured under 5% CO2 conditions.
[1] day 22 to day 38 from the start of suspension culture; DMEM/F12 medium supplemented with 10% fetal calf serum, 1% N2 supplement, and 100 μM taurine. day 38 to day 60 from the start of suspension culture; a 1:3 mixed medium of DMEM/F12 medium supplemented with 10% fetal calf serum, 1% N2 supplement, and 100 μM taurine, and Neurobasal medium supplemented with 10% fetal calf serum, 2% B27 supplement, and 100 μM taurine. after day 60 from the start of suspension culture; Neurobasal medium supplemented with 10% fetal calf serum, 2% B27 supplement, and 100 μM taurine.
[1] Control group (FIG. 2a, f, k, p); according to the method described in Example 1, culture was performed up to day 70 or day 75 from the start of suspension culture and without addition. [2]+BMP group (FIG. 2b, g, 1, q); 0.15 nM BMP4 was added from day 22 from the start of suspension culture to completion of suspension culture, and cultured up to day 70 or day 75 from the start of suspension culture. […]

CYP26A1 gene = experiment: Quantitative PCR of CYP26A1 gene expression in retinal tissue; type: cell-based, human; conditions: about day 70, 0.15 nM BMP4 or 100 nM LDN193189 from day 22
Description: (§1) [1] Control group (FIG. 2a, f, k, p); according to the method described in Example 1, culture was performed up to day 70 or day 75 from the start of suspension culture and without addition. [2]+BMP group (FIG. 2b, g, 1, q); 0.15 nM BMP4 was added from day 22 from the start of suspension culture to completion of suspension culture, and cultured up to day 70 or day 75 from the start of suspension culture. [3]+Cyclopamine-KAAD group (FIG. 2c, h, m, r); 500 nM Cyclopamine-KAAD was added from day 22 from the start of suspension culture to completion of the suspension culture, and cultured up to day 70 or day 75 from the start of suspension culture. [4]+LDN193189 group (FIG. 2d, i, n, s); 100 nM LDN193189 was added from day 22 from the start of suspension culture to completion of the suspension culture, and cultured up to day 70 or day 75 from the start of suspension culture. [5]+SAG group (FIG. 2e, j, o, t); 100 nM SAG was added from day 22 from the start of suspension culture to completion of the suspension culture, and cultured up to day 70 or day 75 from the start of suspension culture.
On the other hand, using cDNA on about day 70 from the start of suspension culture, the expression level of CYP26A1 gene was analyzed. […]

ALDH1A1 = experiment: Immunostaining for ALDH1A1 (dorsal marker) of retinal tissue; type: cell-based, human
Description: as §1
The retinal tissue produced by the methods described in Example 2 and Example 7 was fixed with 4% para-formaldehyde, cryosections were prepared, and immunostaining for ALDH1A1 was performed. The retinal tissue used was one on day 75 from the start of suspension culture similar to Example 2 and one on about day 40 from the start of suspension culture and cultured under the same conditions except the culture period as in Example 7.

[2] = about day 40 from start of suspension culture, 0.15 nM BMP4, 100 nM LDN193189, 100 nM SAG from day 22

| Compound | number of OTX2-positive cells versus Control (NUC) group [1] | OC2-positive cells [1] | expression level (intensity of immunostained fluorescence) of OC2 as compared to the Control (NUC) group, on average [1] | expression of CYP26A1 gene (CYP26A1 gene) | clear ALDH1A1-positive region (dorsal region) (ALDH1A1; [2]) | clear ALDH1A1-positive region (dorsal region) (ALDH1A1; day 75 from start of suspension culture, 0.15 nM BMP4 from day 22) |
| --- | --- | --- | --- | --- | --- | --- |
| CC1=C2C[C@H]3[C@@H](CC=C4CC(=O)CC[C@@]43C)[C@@H]2CC[C@]12O[C@@H]1C[C@H](C)CN(CCNC(=O)CCCCCNC(=O)CCc3ccccc3)[C@H]1[C@H]2C [Cyclopamine-KAAD] | higher | ~16.7% | about 64% |  |  |  |
| c1ccc2c(-c3cnn4cc(-c5ccc(N6CCNCC6)cc5)cnc34)ccnc2c1 [LDN193189, 4-[6-(4-piperazin-1-ylphenyl)pyrazolo[1,5-a]pyrimidin-3-yl]quinoline] | lower | ~35.1% |  | suppresses | not found |  |
| CNC1CCC(N(Cc2cccc(-c3ccncc3)c2)C(=O)c2sc3ccccc3c2Cl)CC1 (stereo not shown) [SAG] | lower | ~27.3% |  |  | not found |  |
| BMP4: BMP protein; BMP signal transduction pathway agonist used as dorsalization signal transmitter | higher | about 16.0% | about 36% | promotes | found only in +BMP4 group | not observed |
